Each structure is given as a SMILES string.

This data set can be described thus: gradient 5% acetonitrile 3 min, to 50% in 2 min, to 85% in 15 min, held 3 min, 100 µL/min. As to conditions: column: Zorbax Extend-C18 2.1 x 50 mm; eluents: water / acetonitrile, 0.1% formic acid. Put shortly: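 Pure standards were run in mixtures of ~100 molecules by HPLC coupled to a quadrupole time-of-flight mass spectrometer. The column was a Zorbax Extend-C18 (2.1 × 50 mm, 1.8 μm) at 100 μL/min, with water and acetonitrile each containing 0.1% formic acid, in positive and negative ionization mode. Dead and dwell volumes were 40 μL and 900 μL. Retention time was taken from computationally picked adduct peaks, each manually inspected, with data collected over 3 months.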
Take `CCOC(=O)c1c(C)c(C(=O)Nc2cccc(C)c2C)c(C)n1C`: the RP-LC retention time came out at 882 s.

For the compound `CC12CC(NC(=O)N1c1cccc(C(=O)NCc3cccnc3)c1)c1cc(Br)ccc1O2` (centres undefined), the RP-LC retention time is 642 s.

In turn, `Cc1ccc(CNS(=O)(=O)c2cc3n(c2)CCCNC3=O)cc1C` came in with an RP-LC retention time of 739 s.

In turn, `COC(=O)c1c(C)[nH]c(C(=O)N2CCCC(C(=O)NCc3ccc4c(c3)OCO4)C2)c1C` (centres undefined) registered an RP-LC retention time of 720 s.

As to `O=C(O)CCNc1c(-c2ccc(F)cc2)nc2cnccn12`, the RP-LC retention time is 619 s.

Take `CCOc1ccc(-c2noc(Cc3nc(-c4ccccc4Cl)cs3)n2)cc1`: the RP-LC retention time amounted to 1340 s.

For the compound `CC(C)N1CCCn2cc(S(=O)(=O)Nc3ccc(F)cc3)cc2C1=O`, the RP-LC retention time was determined as 754 s.

For the compound `CCOc1ccc(CN2CCc3nc(N4CCN(c5ccccc5F)CC4)ncc3C2)cc1`, the RP-LC retention time amounted to 834 s.

For the compound `CCNc1cc(N2CCCC(CCC(=O)N3CCOCC3)C2)ncn1` (centres undefined), the RP-LC retention time amounted to 586 s.

`Cc1ccc(N2CCN(C(=O)c3sc4ncccc4c3-n3cccc3)CC2)c(C)c1` came in with an RP-LC retention time of 1260 s.

The compound `O=C(Nc1ccc(-c2nnc3n2CCCC3)cc1)c1ccn[nH]1` had an RP-LC retention time of 595 s.

Compound `COc1ccc(CCC(=O)NCC2CCN(C(=O)NC(C)(C)C)CC2)cc1` had an RP-LC retention time of 687 s.

`Cc1ccc(NC(=O)N2CCC(n3cnc4ccc(F)cc4c3=O)CC2)c(C)c1` yielded an RP-LC retention time of 790 s.

The compound `CN1c2ccc(Cl)cc2C(=O)NC12CCN(C(=O)Nc1ccccc1)CC2` yielded an RP-LC retention time of 800 s.

Consider `Cc1ccc(S(=O)(=O)NCC2CN(CC3CC3)CC23CCCCC3)c(C)c1` (centres undefined), for which the RP-LC retention time was determined as 767 s.

In turn, `Cc1csc(-c2cc(S(=O)(=O)NCC3CCCO3)cn2CC(=O)N2CCCCC2)n1` (centres undefined) registered an RP-LC retention time of 831 s.

`CCc1ccc(NC(=O)CN2C(=O)C3CCCCN3c3ccc(S(=O)(=O)N(C)C)cc32)cc1` (centres undefined) displayed an RP-LC retention time of 817 s.

`COc1cc(NC(=O)C2CCN(S(=O)(=O)c3ccc4c(c3)NC(=O)C(C)O4)CC2)cc(OC)c1` (centres undefined) returned an RP-LC retention time of 811 s.

`COc1cncc(C(=O)Nc2cc(F)ccc2F)c1` registered an RP-LC retention time of 735 s.

Regarding `Cc1cccc(N2CCN(S(=O)(=O)c3cc(-c4cc(C(F)(F)F)on4)cs3)CC2)c1C`, the RP-LC retention time was found to be 1420 s.

As to `O=C(CCCc1ccccc1)N1C[C@H]2CNC(=O)[C@]23CCCC[C@@H]13`, the RP-LC retention time turned out to be 770 s.

`COC(=O)c1ccccc1NC1=NS(=O)(=O)c2ccccc21`: the RP-LC retention time was determined as 934 s.

The compound `Cc1ccc(C(=O)Nc2ccc(-c3nnc4n3CCCC4)cc2)s1` displayed an RP-LC retention time of 680 s.

`O=C(Cn1cnc(-c2cccs2)cc1=O)NCc1ccccc1OC(F)(F)F` registered an RP-LC retention time of 801 s.

`O=C1CN=C(c2ccc[nH]2)c2cc(Cl)ccc2N1` gave an RP-LC retention time of 650 s.

Compound `Cc1nn(-c2ccc(F)cc2)c(C)c1S(=O)(=O)N1CCC(C(=O)NC(C)(C)C)CC1` displayed an RP-LC retention time of 888 s.

Regarding `O=C(NC1CCN(c2cc(-c3ccccc3)[nH]n2)C1)c1cc(F)ccc1Cl` (centres undefined), the RP-LC retention time stood at 708 s.

As for `COCc1nnc(C(=O)Nc2ccc(C(=O)NCCc3c[nH]c4ccc(Cl)cc34)cc2)s1`, the RP-LC retention time was 893 s.

For `COc1ccc(CCC(=O)NCCCN2CCOC(c3ccccc3)C2)cc1` (centres undefined), the RP-LC retention time was found to be 570 s.

Take `CCCNC(=O)C1CCN(S(C)(=O)=O)c2cc(Cl)ccc2O1` (centres undefined): the RP-LC retention time is 747 s.

Take `COc1ccc(-n2c(=O)c3sccc3n(Cc3nc(-c4ccccc4Cl)no3)c2=O)cc1`: the RP-LC retention time was determined as 946 s.

`CC(C)CN1C(=O)c2cccn2CC1C(=O)NCCCN1CCCC1=O` (centres undefined) showed an RP-LC retention time of 617 s.

As to `O=C(CSc1nccn1-c1ccc(Cl)cc1)NCc1ccco1`, the RP-LC retention time is 655 s.

For the compound `O=C(NCCCN1CCN(c2ccccc2)CC1)C1CCCN(c2nc3cccnc3s2)C1` (centres undefined), the RP-LC retention time turned out to be 643 s.

Take `Cc1ccccc1Nc1c(-c2cccc(Br)c2)nc2cnccn12`: the RP-LC retention time was determined as 1040 s.

The compound `O=C(NCc1ccco1)c1ccc(NS(=O)(=O)c2cccc(C(F)(F)F)c2)cc1` came in with an RP-LC retention time of 818 s.

`CCOc1cccc(CNC(=O)c2cnc(-c3ccccc3)nc2-c2ccncc2)c1`: the RP-LC retention time is 855 s.

The compound `CC(C)[C@@H]1NC(=O)[C@H](Cc2ccccc2)NC(=O)[C@@H](CC(=O)O)NC(=O)CNC(=O)[C@H](CCCN=C(N)N)NC1=O` had an RP-LC retention time of 624 s.

In turn, `Cc1ccc(-c2cc(C(=O)NCC(C)C)n(C)c2)cc1` showed an RP-LC retention time of 1070 s.

In the case of `COc1ccc(OC)c(S(=O)(=O)N(C)C)c1`, the RP-LC retention time came out at 702 s.

In turn, `Cc1ccc(Nc2c(-c3ccc(N(C)C)cc3)nc3ccc(Cl)cn23)cc1` came in with an RP-LC retention time of 818 s.

Turning to `CCc1nc(-c2ccc(S(=O)(=O)N3CCC(C(=O)N4CCc5ccccc54)CC3)cc2)no1`, the RP-LC retention time was 802 s.

Compound `O=S(=O)(c1cccc(F)c1)N1CC(c2nc(CCOCC3CCOCC3)no2)C1` yielded an RP-LC retention time of 686 s.

In turn, `COc1ccccc1CNC(=O)Cn1c(=O)cc(-c2nc(C3CC3)no2)c2ccccc21` gave an RP-LC retention time of 932 s.

Take `CC(C)CN1C(=O)c2ccccc2C(C(=O)NCCCN2CCN(C)CC2)C1c1cccs1` (centres undefined): the RP-LC retention time was found to be 607 s.

For the compound `CCn1c(=O)c(C)nc2cc(-c3noc(-c4ccc(N(C)C)cc4)n3)ccc21`, the RP-LC retention time turned out to be 1140 s.

In turn, `CC(C)NC(=O)CSc1ccc(N2CCN(c3ccccc3)CC2)nn1` came in with an RP-LC retention time of 708 s.

Compound `O=C(NCCc1c[nH]c2ccc(Cl)cc12)c1cc(-c2ccccn2)nc2ccccc12` displayed an RP-LC retention time of 959 s.

`CCCn1cc(C(=O)Nc2cc(OC)ccc2OC)c(=O)c2ccc(C)nc21` showed an RP-LC retention time of 1090 s.

`O=C(Cn1c(=O)c(=O)n(Cc2ccccc2)c2ncccc21)NCc1ccco1` had an RP-LC retention time of 786 s.

With `Cc1cccc(-n2c(Cc3cccn3C)nnc2SCC(=O)NCC2CCCO2)c1C` (centres undefined), the RP-LC retention time came to 776 s.

Take `CCc1noc(NC(C)=O)c1-c1ccc(OC)c(S(=O)(=O)N2CCN(c3ncccn3)CC2)c1`: the RP-LC retention time turned out to be 723 s.

For `Cc1cc(C)c2c(N3CCSCC3)nc(C(=O)N3CCCN(C)CC3)nc2n1`, the RP-LC retention time stood at 600 s.

`COC(=O)c1c(N)n(C(C)c2ccccc2)c2nc3ccccc3nc12` (centres undefined) came in with an RP-LC retention time of 727 s.

Take `C=CCN1CCN(c2ccc3nnc(CCc4nc(-c5ccc(F)cc5)no4)n3n2)CC1`: the RP-LC retention time came out at 622 s.

The compound `COCCNC(=O)CN1C(=O)C2CCCCN2c2ccc(S(=O)(=O)N3CCCC3)cc21` (centres undefined) came in with an RP-LC retention time of 728 s.

`CCc1noc(-c2ccc(-n3cnc(C(=O)N4CCc5ccccc5C4)c3)nc2)n1` yielded an RP-LC retention time of 924 s.

`COc1ccccc1CNC(=O)C1CCCN(C(=O)C2Sc3ccccc3NC2=O)C1` (centres undefined) gave an RP-LC retention time of 736 s.

Compound `CC[C@@]1(O)C[C@H](OC2CC(N(C)C)C(O)C(C)O2)c2c(cc3c(c2O)C(=O)c2c(O)ccc(O)c2C3=O)[C@H]1C(=O)OC` (some centres undefined) registered an RP-LC retention time of 717 s.

With `O=C(Nc1nc(CC(=O)N2CCCc3ccccc32)cs1)C1CC1`, the RP-LC retention time amounted to 739 s.

Consider `CCOC(=O)CNC(=O)Cn1nc2n(c(=O)c1=O)CCN2c1ccccc1`, for which the RP-LC retention time amounted to 626 s.

Compound `COc1ccc(S(=O)(=O)N2CCCC(C(=O)NCCCO)C2)cc1OC` (centres undefined) showed an RP-LC retention time of 880 s.

With `COc1ccc(C(=O)n2c(SC)nc3ccccc32)cc1OC`, the RP-LC retention time stood at 827 s.

Consider `CCCn1cc(C2=CCN(C(=O)NCc3ccc(C)cc3)CC2)c2cccnc21`, for which the RP-LC retention time turned out to be 939 s.

As to `Cc1ccc(-c2csc(NC(=O)c3sc(C)nc3C)n2)cc1`, the RP-LC retention time came to 974 s.

As to `CCOC(=O)Nc1c2ccccc2nc2ccccc12`, the RP-LC retention time was found to be 660 s.

Compound `CC(=O)Nc1cccc(C2=NN(C(C)=O)C(c3ccc4nccnc4c3)C2)c1` (centres undefined) came in with an RP-LC retention time of 617 s.

`CN(C)Cc1cc(C(F)(F)F)ccc1C(O)(c1ccccc1)c1ccccc1` returned an RP-LC retention time of 883 s.

In turn, `Cc1ccccc1CC(=O)Nc1ccc2c(c1)CCC(=O)N2CC(C)C` yielded an RP-LC retention time of 910 s.

For `O=C(NCCCN1CCCC1=O)c1csc(N2CCN(c3ccc(Cl)cc3)CC2)n1`, the RP-LC retention time was 881 s.

The compound `Cc1nc(N2CCOCC2)c2c(C(=O)NCc3ccc(Cl)cc3)c(C)oc2n1` displayed an RP-LC retention time of 797 s.

`COc1ccc(CCc2nc3nccc(-c4ccncc4)n3n2)cc1OC` returned an RP-LC retention time of 645 s.

Take `O=C(NC1CC1)C1CCCN(C(=O)c2ccccc2)C1` (centres undefined): the RP-LC retention time turned out to be 619 s.

In the case of `CC(=O)c1ccc(NS(=O)(=O)c2ccccc2[N+](=O)[O-])cc1`, the RP-LC retention time worked out at 729 s.

Compound `Cc1cnc(C2CN(Cc3cccc(F)c3)C2)n1Cc1ccccc1` had an RP-LC retention time of 595 s.

Turning to `CCC(=O)n1nc(C)c(S(=O)(=O)N2CCCCC2)c1C`, the RP-LC retention time is 1040 s.

`CCn1nccc1-c1cccc(-c2noc(-c3cc4ccccc4oc3=O)n2)c1` showed an RP-LC retention time of 1060 s.

Turning to `CC(C)NC(=O)c1ccccc1OCC1CCCN(C2CCCC2)C1` (centres undefined), the RP-LC retention time is 635 s.

Consider `COc1ccc(OC)c(Nc2c(-c3ccc(C(=O)O)cc3)nc3cnccn23)c1`, for which the RP-LC retention time stood at 709 s.

The record behind these values is the METLIN SMRT retention time set (Domingo-Almenara et al. 2019).
